# According to ChEMBL document CHEMBL4483862, “Open-source discovery of chemical leads for next-generation chemoprotective antimalarials” (2018):
# pIC50: −log10 of the molar value.
# Test system: Plasmodium berghei
# Assay: Luciferase/luciferin-expressing antifolate-resistant parasites were used to infect a culture of HepG2 cells that were pre-incubated with compounds. Infected hepatocytes emit light due to the luciferase reaction. Assay results are presented as the percent inhibition of light emission compared to control. […]
# Type: functional
# Details: sporozoite; for IC90: read-out: LUCIFERASE INFECTION ASSAY - IC90
Compound,IC90,also measured
NC(CCc1ccccc1)c1csc(Nc2ccc(C(F)(F)F)cn2)n1 (stereo not given),4.5 µM,"pIC50 (PBLUC_HILL_SLOPE 84.8, PBLUC_R_SQUARED 0.093, read-out: LUCIFERASE INFECTION ASSAY - IC50): 5.36"
Cc1nc(-c2ccccn2)nc(N(C)Cc2ccccc2)c1Cl,3.5 µM,"pIC50 (PBLUC_HILL_SLOPE 72.3, PBLUC_R_SQUARED 0.385, read-out: LUCIFERASE INFECTION ASSAY - IC50): 5.47"
O=C1c2ccccc2O[C@@H](c2ccc(Cl)cc2)[C@@H]1O,> 12 µM,"pIC50 (PBLUC_HILL_SLOPE 64.7, PBLUC_R_SQUARED 0.241, read-out: LUCIFERASE INFECTION ASSAY - IC50): 4.92"
COc1cc(OC)nc(Nc2nc(C(N)C3CCCCC3)cs2)n1 (stereo not given),> 9.44 µM,"pIC50 (PBLUC_HILL_SLOPE 67.6, PBLUC_R_SQUARED 0.122, read-out: LUCIFERASE INFECTION ASSAY - IC50): 5.04"
c1ccc(-c2cn3nc(NCC(c4cccs4)N4CCOCC4)sc3n2)cc1 (stereo not given),6.67 µM,"pIC50 (PBLUC_HILL_SLOPE 82.8, PBLUC_R_SQUARED 0.111, read-out: LUCIFERASE INFECTION ASSAY - IC50): 5.19"
CC(C)c1ccc(/C=C2\CCc3c2nc2ccccc2c3C(=O)O)cc1,0.0263 µM,"pIC50 (PBLUC_HILL_SLOPE 81.7, PBLUC_R_SQUARED 0.0337, read-out: LUCIFERASE INFECTION ASSAY - IC50): 7.59"
CNC(=O)c1ccc(CN(C(=O)/C=C/c2ccc(-c3ccccc3F)s2)C2CC2)cc1,6.45 µM,"pIC50 (PBLUC_HILL_SLOPE 95.6, PBLUC_R_SQUARED 0.262, read-out: LUCIFERASE INFECTION ASSAY - IC50): 5.20"
Cc1cc(N2CCN(CC(=O)N(C)C)CC2)nc2c(C(C)C)cccc12,6.13 µM,"pIC50 (PBLUC_HILL_SLOPE 64.7, PBLUC_R_SQUARED 0.2, read-out: LUCIFERASE INFECTION ASSAY - IC50): 5.23"
Cc1nc(Sc2ncnc3sc4c(c23)CCC4)sc1CC(N)=O,1.96 µM,"pIC50 (PBLUC_HILL_SLOPE 51.2, PBLUC_R_SQUARED 0.477, read-out: LUCIFERASE INFECTION ASSAY - IC50): 5.73"
C[C@H](Nc1ccc(C(F)(F)F)cc1[N+](=O)[O-])C(=O)Nc1nc2ccccc2[nH]1,6.29 µM,"pIC50 (PBLUC_HILL_SLOPE 74.9, PBLUC_R_SQUARED 0.587, read-out: LUCIFERASE INFECTION ASSAY - IC50): 5.21"
Cc1nc(NC(=O)c2cn3ccccc3n2)sc1Cc1ccc2c(c1)OCO2,3.5 µM,"pIC50 (PBLUC_HILL_SLOPE 53.8, PBLUC_R_SQUARED 0.294, read-out: LUCIFERASE INFECTION ASSAY - IC50): 5.47"
CC(C)CC(N)c1csc(NC(=O)Nc2ccc(OC(F)(F)F)cc2)n1 (stereo not given),5.1 µM,"pIC50 (PBLUC_HILL_SLOPE 53.9, PBLUC_R_SQUARED 0.0664, read-out: LUCIFERASE INFECTION ASSAY - IC50): 5.31"
CCCCCCn1c(SCc2cc(=O)oc3cc(C)ccc23)nnc1-c1c[nH]c2ccccc12,> 10 µM,"pIC50 (PBLUC_HILL_SLOPE 85.8, PBLUC_R_SQUARED 0.0287, read-out: LUCIFERASE INFECTION ASSAY - IC50): 5.00"
CC(Oc1ccc(C(=O)NCc2ccnc(N(C)C)c2)cn1)c1ccccc1 (stereo not given),6.11 µM,"pIC50 (PBLUC_HILL_SLOPE 81.7, PBLUC_R_SQUARED 0.538, read-out: LUCIFERASE INFECTION ASSAY - IC50): 5.23"
CN(CC(=O)Nc1c(Cl)cccc1Cl)C(=O)c1cccc(Oc2cccc(C(F)(F)F)c2)c1,6.4 µM,"pIC50 (PBLUC_HILL_SLOPE 97.2, PBLUC_R_SQUARED 0.277, read-out: LUCIFERASE INFECTION ASSAY - IC50): 5.20"
COc1cc(Br)cc(/C=N/NC(=S)NC(C)(C)C)c1O,6.76 µM,"pIC50 (PBLUC_HILL_SLOPE 63.8, PBLUC_R_SQUARED 0.286, read-out: LUCIFERASE INFECTION ASSAY - IC50): 5.19"
Cc1c(CN2CCN(c3ccccn3)CC2)noc1-c1ccc(F)cc1,3.45 µM,"pIC50 (PBLUC_HILL_SLOPE 83.7, PBLUC_R_SQUARED 0.475, read-out: LUCIFERASE INFECTION ASSAY - IC50): 5.47"
NC(=O)C(C(=O)/C=C/c1ccc(Cl)cc1)=C1SCS1,4.75 µM,"pIC50 (PBLUC_HILL_SLOPE 78.5, PBLUC_R_SQUARED 0.479, read-out: LUCIFERASE INFECTION ASSAY - IC50): 5.34"
CCOc1ccc(/C=C(/C(=O)NCc2ccc(F)cc2)c2nc3ccccc3[nH]2)cc1,5.81 µM,"pIC50 (PBLUC_HILL_SLOPE 89.9, PBLUC_R_SQUARED 0.419, read-out: LUCIFERASE INFECTION ASSAY - IC50): 5.25"
CCCCc1ccc(N(C(=O)Nc2ccc(Cl)cc2)C2=NC(CC)CS2)cc1 (stereo not given),> 10 µM,"pIC50 (PBLUC_HILL_SLOPE 93.6, PBLUC_R_SQUARED 0.111, read-out: LUCIFERASE INFECTION ASSAY - IC50): 5.00"

Compound,IC90,also measured
O=C(NCCC1=CCCCC1)Nc1ccc(OC(F)(F)F)cc1,> 10.1 µM,"pIC50 (PBLUC_HILL_SLOPE 77.5, PBLUC_R_SQUARED 0.175, read-out: LUCIFERASE INFECTION ASSAY - IC50): < 5.00"
O=C(NCCC(=O)N1CCc2sccc2C1c1ccccc1)c1ccsc1 (stereo not given),5.51 µM,"pIC50 (PBLUC_HILL_SLOPE 101, PBLUC_R_SQUARED 0.289, read-out: LUCIFERASE INFECTION ASSAY - IC50): 5.27"
CC(C)N(C(=O)CSc1ccc(F)c(F)c1)c1ccc(Nc2ccccc2)cc1,6.35 µM,"pIC50 (PBLUC_HILL_SLOPE 46.2, PBLUC_R_SQUARED 0.0491, read-out: LUCIFERASE INFECTION ASSAY - IC50): 5.22"
COc1ncccc1C(=O)Nc1cc(Cl)cc(Cl)c1,3.83 µM,"pIC50 (PBLUC_HILL_SLOPE 56, PBLUC_R_SQUARED 0.566, read-out: LUCIFERASE INFECTION ASSAY - IC50): 5.43"
COc1ccc(C2CCCCCN2C(=O)CCc2c(C)[nH]c(-c3ccccc3)nc2=O)cc1 (stereo not given),3.45 µM,"pIC50 (PBLUC_HILL_SLOPE 57.7, PBLUC_R_SQUARED 0.487, read-out: LUCIFERASE INFECTION ASSAY - IC50): 5.48"
CC(C)(C)c1ccc(-c2nnc(SCc3ccccc3Cl)n2-c2cccc(C(F)(F)F)c2)cc1,> 6.57 µM,"pIC50 (PBLUC_HILL_SLOPE 55, PBLUC_R_SQUARED 0.768, read-out: LUCIFERASE INFECTION ASSAY - IC50): 5.18"
CN(Cc1ccc(C(=O)NC2CC2)cc1)c1ncccc1[N+](=O)[O-],6.56 µM,"pIC50 (PBLUC_HILL_SLOPE 96.1, PBLUC_R_SQUARED 0.262, read-out: LUCIFERASE INFECTION ASSAY - IC50): 5.19"
COc1ccc(/C=C2\N=C(SCC(=O)O)N(Cc3ccccc3)C2=O)cc1,0.545 µM,"pIC50 (PBLUC_HILL_SLOPE 72.9, PBLUC_R_SQUARED 0.433, read-out: LUCIFERASE INFECTION ASSAY - IC50): 6.28"
CS(=O)(=O)NC1CCN(c2nc(-c3ccccn3)nc3sc(-c4ccccc4)cc23)CC1,3.42 µM,"pIC50 (PBLUC_HILL_SLOPE 90.2, PBLUC_R_SQUARED 0.429, read-out: LUCIFERASE INFECTION ASSAY - IC50): 5.48"
C=CCN(c1ccccc1OC)S(=O)(=O)c1cccc(C(=O)Oc2c(Cl)cc(Cl)c3ccc(C)nc23)c1,6.11 µM,"pIC50 (PBLUC_HILL_SLOPE 68.6, PBLUC_R_SQUARED 0.538, read-out: LUCIFERASE INFECTION ASSAY - IC50): 5.23"
Cc1nc2ccccc2n1CCNC(=O)c1ccc(Cl)cc1NC(=O)c1cccs1,4.77 µM,"pIC50 (PBLUC_HILL_SLOPE 48.3, PBLUC_R_SQUARED 0.528, read-out: LUCIFERASE INFECTION ASSAY - IC50): 5.34"
CCCn1c(N)c(C(=O)CNc2ccccc2N2CCCCCC2)c(=O)n(C)c1=O,5.69 µM,"pIC50 (PBLUC_HILL_SLOPE 99.9, PBLUC_R_SQUARED 0.404, read-out: LUCIFERASE INFECTION ASSAY - IC50): 5.25"
O=C(NNC(=O)c1nn(-c2ccccc2)cc1O)c1ccc2c(c1)OCO2,6.28 µM,"pIC50 (PBLUC_HILL_SLOPE 71.1, PBLUC_R_SQUARED 0.59, read-out: LUCIFERASE INFECTION ASSAY - IC50): 5.22"
NC(=O)c1ccc(-c2cc(-c3cccc(C(F)(F)F)c3)cnc2N)cc1,5.02 µM,"pIC50 (PBLUC_HILL_SLOPE 80.6, PBLUC_R_SQUARED 0.104, read-out: LUCIFERASE INFECTION ASSAY - IC50): 5.31"
CN(C)CCNC(=O)c1ccc(-c2cnc3c(Nc4cccc(C(F)(F)F)c4)nccn23)cc1,> 7.04 µM,"pIC50 (PBLUC_HILL_SLOPE 63.8, PBLUC_R_SQUARED 0.339, read-out: LUCIFERASE INFECTION ASSAY - IC50): 5.16"
NC(Cc1ccc(F)cc1)c1csc(NC(=O)c2ccc(F)c(Cl)c2)n1 (stereo not given),5.68 µM,"pIC50 (PBLUC_HILL_SLOPE 84.1, PBLUC_R_SQUARED 0.0637, read-out: LUCIFERASE INFECTION ASSAY - IC50): 5.26"
CCOc1ccccc1NC(=O)c1nc(-c2ccccc2)n(-c2ccccc2)n1,3.4 µM,"pIC50 (PBLUC_HILL_SLOPE 61.7, PBLUC_R_SQUARED 0.143, read-out: LUCIFERASE INFECTION ASSAY - IC50): 5.48"
COc1cc(C(=O)Nc2ccc(Cn3cncn3)cc2)ccc1Oc1ccc(Cl)cc1[N+](=O)[O-],6.19 µM,"pIC50 (PBLUC_HILL_SLOPE 72.9, PBLUC_R_SQUARED 0.579, read-out: LUCIFERASE INFECTION ASSAY - IC50): 5.22"
Cc1[nH]c(-c2ccccn2)nc(=O)c1CC(=O)NC1CCCCCCC1,1.71 µM,"pIC50 (PBLUC_HILL_SLOPE 61.7, PBLUC_R_SQUARED 0.378, read-out: LUCIFERASE INFECTION ASSAY - IC50): 5.78"
CC(Sc1nc(-c2ccccc2)c(-c2ccccc2)o1)C(=O)NC1CC1 (stereo not given),5.53 µM,"pIC50 (PBLUC_HILL_SLOPE 75.9, PBLUC_R_SQUARED 0.255, read-out: LUCIFERASE INFECTION ASSAY - IC50): 5.27"
